# Measured values published in patent US8372808B2, “Suppression of glial fibrillary acidic protein” (Wisconsin Alumni Research Foundation, priority 2008, dated 2013).
# Values joined by “and” are separate entries in the source; they are usually repeats but may differ in a detail not shown here. Equal entries are not always repeated.
# What was measured:
# GFAP protein [1] = test: sandwich ELISA for GFAP protein in 172.9 cells, quaternary screen; assay type: cell-based, mouse; conditions: 10 days of exposure, 0-20 μM
# Protocol: Compounds were tested at eight different concentrations ranging from 0-20 μM. In addition, GFAP protein levels were measured using a sandwich ELISA, which has greater sensitivity and is more accurate than the cell-based ELISA used in the primary screens.
# The extracts were harvested from each well and the total GFAP content of each well was measured by a sandwich ELISA as described below. Briefly, separate microtiter plates were coated with SMI-26 anti-GFAP mouse monoclonal antibody cocktail (1:1000, Covance, diluted in PBS) overnight at 4° C., rinsed 3 times in PBS, and then blocked with Blotto (5% nonfat milk/PBS) for 2 h at RT. Samples from the astrocyte cell lysate (20 μl per well) were loaded onto the plates and brought up to 100 μl with 0.5% Triton X-100/PBS (a buffer used for subsequent antibody incubations and rinses), and incubated with a rabbit polyclonal anti-GFAP antibody (1:5000, DAKO) overnight at 4° C. The plates were rinsed three times and then incubated with HRP-conjugated goat anti-rabbit IgG (1:30,000, Sigma) for 2 h at RT. After three final rinses, peroxidase activity was detected using the Super Signal Femto maximum Sensitivity Substrate (Pierce) with a GloRunner microplate luminometer (Turner Biosystems). The GFAP content in the samples was determined from a standard curve generated using serial dilutions of purified GFAP (Research Diagnostics).
# GFAP promoter = GFAP promoter activity in brain of Tg172.9 mice (Dual-Glo luciferase assay); assay type: in vivo, mouse
# Protocol: Controls were injected with vehicle only. Brains were collected at various times post-injection, and analyzed for GFAP promoter activity using the Dual-Glo assay. Graphs present the mean±SEM (n=4 at each data point). Statistical significance was evaluated by unpaired t-test (* p<0.05). […] Brains were collected at 6 hours post-injection and analyzed for GFAP promoter activity using the Dual-Glo assay. Graphs present the mean±SD (n=4 at each data point). Statistical significance was evaluated by unpaired t-test (* p<0.05).
# (§1) Another group of mice were injected with the same volume of vehicle alone (n=15). Brains were bisected sagittally with one half analyzed for GFAP promoter activity using the Dual-Glo assay, and the other half analyzed for GFAP protein using the sandwich ELISA. FIG. 7A is a bar graph showing hGFAP promoter activity of clomipramine-treated mice. The mice show a 26% reduction in hGFAP promoter activity compared to vehicle-treated controls. FIG. 7B is a bar graph showing the GFAP protein levels of clomipramine-treated mice. The mice show a 57% reduction in total GFAP content compared to vehicle-treated controls. Graphs present the mean±SD (* p<0.05, ***p<0.001, unpaired t-test).
# (§2) At various times after injection, from 0-48 hours, brains were harvested for measurement of GFAP promoter activity using the Dual-Glo luciferase assay, and GFAP protein using a sandwich ELISA.
# (§3) Injections were given in the afternoon, between 3-5 PM. Controls were transgenic littermates injected with vehicle alone. At the end of the three week course of injections (and one day after the last injection), brains were harvested for analysis of GFAP promoter activity and protein levels as described above.
# To achieve significant reductions of GFAP protein in vivo may require chronic treatments, given the slow turnover of this protein. […] Controls were injected with vehicle alone. One day after the last injection, brains were harvested and assayed for both GFAP promoter activity and GFAP protein.
# GFAP protein [2] = test: GFAP protein in brain of Tg172.9 mice (sandwich ELISA); assay type: in vivo, mouse
# Protocol: as §1, §2, §3
# To achieve significant reductions of GFAP protein in vivo may require chronic treatments, given the slow turnover of this protein. […] Controls were injected with vehicle alone. […]
# GAPDH promoter = test: housekeeping GAPDH promoter activity in brain of Tg172.9 mice; assay type: in vivo, mouse; conditions: 40 mg/kg IP every other day for 3 weeks
# Protocol: The dual transgenic reporter mice (FVB-Tg(GFAP-luc,GAPDH-luc)172.9Mes/J mice (JR#9638)) were developed as follows. The two transgenes were co-injected at equimolar ratios into the pronuclei of fertilized eggs on either FVB/N or FB6F1 hybrid backgrounds, using a combined concentration of 3 ng/μL. Genotyping was performed by PCR on genomic DNA isolated from tail biopsies at weaning, using the following conditions: one cycle at 95° C. 3 min, 32 cycles of 95° C. 40 s, 58° C. 30 s, 72° C. 1 min and a final extension step at 72° C. for 5 min. The primers used for detection of the GFAP-fLuc transgene were 5′-[…]-3′ (forward) and 5′-[…]-3′ (reverse), and for detection of the GAPDH-RLuc transgene were 5″-[…]-3′ (forward) and 5′-[…]-3′ (reverse). The predicted sizes for the PCR fragments are 403 bp for the GFAP-fLuc transgene, and 551 by for the GAPDH-RLuc transgene. Nine founder mice were identified that contained both transgenes, and were mated to FVB/N mice to establish lines. (The Tg172-9 line of mice has been donated to the Jackson Laboratory ([…]) for unrestricted distribution (stock #JR9638). The GAPDH (glyceraldehyde 3-phosphate dehydrogenase) promoter was used to monitor transcription of a housekeeping gene for signal normalization.
# [3] = pilot studies with daily injections of clomipramine (tolerability); assay type: in vivo, mouse; conditions: daily injections of 40 mg/kg; after 2 weeks
# [4] = 40 mg/kg IP every other day for 3 weeks
smiles,measurement,setting,value
CN(C)CCCN1c2ccccc2CCc2ccc(Cl)cc21 [clomipramine],reductions in GFAP protein levels,GFAP protein [1],consistent reductions
same,reduction in GFAP promoter activity compared to vehicle-treated controls,GFAP promoter; [4],26%
same,time at which promoter activity returned to normal,"GFAP promoter; single 40 mg/kg IP, brain",≤ 24 h
same,time of peak reduction in promoter activity after injection,"GFAP promoter; single 40 mg/kg IP, brain",4 to 6 h
same,reduction in promoter activity,"GFAP promoter; single injection of 40 mg/kg IP, brains collected at 4 hours after injection",38%
same,effect on promoter activity,"GFAP promoter; single injection, doses of 5-20 mg/kg IP",without effect
same,reduction in GFAP protein compared to vehicle-treated controls,GFAP protein [2]; [4],57% and ~50%
same,changes in GFAP protein levels,"GFAP protein [2]; acute treatment, single IP injection, 0-48 hours",no changes
same,change in activity from the housekeeping GAPDH promoter,GAPDH promoter,no significant change
same,side effect of daily injections,[3],weight loss
